According to PMC9410094 (Marine Drugs, 2022):
Converted amounts (≈) assume the structure as drawn. Positions of bridges follow the written chain, without caps; N, C: chain ends. Residues, ends and D or L forms follow the SMILES beside them.

Key:
P. aeruginosa PAO1 = assay: Inhibition of biofilm formation, crystal violet; type: cell-based; conditions: 24 h, LB, 32 °C
Text: Such an adaptive and survival mechanism is mediated by biofilms, which constitutes the community of sessile bacteria embedded within the self-produced extracellular polymeric substance (EPS) that defends them from chemical, biological, and physical stress; it also […] foreign invaders. Besides the fact that EPS decreases concentration of antibiotics, bacteria inside biofilm are characterized by a reduced rate of cell divisions, an increased expression of stress response genes, an occurrence of persistent cells, and exchange of resistance genes leading to a broader spread of tolerant biofilm-growing bacteria. For the treatment of biofilm-associated infections a high concentration of antibiotics is required that also increases toxicity toward human cells. Antimicrobial peptides are able to act on certain stages of biofilm formation and various molecular targets and are considered as promising candidates for the development of new antibiofilm agents. […] Bacterial biomass amount was evaluated using the standard crystal violet assay over a 24 h incubation period with each drug. […]
Masses of biofilms were evaluated by dying with 0.1% CV. […]
The ability of peptides to influence the formation of biofilms was evaluated by the method of two-fold serial dilutions in a liquid nutrient medium. […] Further, the extracts were transferred to a new plate and absorption was measured at 570 nm. […]

E. coli 3421/E19 = assay: Neutropenic mice peritonitis model; type: in vivo, BALB/c mice; conditions: for Bacterial burden in mice blood (in words) / Reduction of the CFU level in peritoneal fluid (PF): neutropenic BALB/c mice, CFU 5 h after treatment; for Bacterial burden in mice blood (in words): n = 5, i.p. infection, single i.v. dose 1 h post-infection (AMPs 10 mg/kg, polymyxin B 5 mg/kg); for Reduction of the CFU level in peritoneal fluid (PF): n = 5, single i.v. dose (AMPs 10 mg/kg, polymyxin B 5 mg/kg)
Description: Immune-deficient mice were inoculated intraperitoneally (i.p.) with bacterial suspension. Antimicrobial agent was administered 1 h post-infection, and colony counts in blood and peritoneal fluid (PF) were determined 5 h later.
(A) The mice peritonitis model. […] Horizontal bars indicate means ± SD.
Food and water were provided ad libitum.
CFU counts were determined from blood and peritoneal fluid (PF) 5 h after treatment. The mice were euthanized by CO2 asphyxiation and blood was collected by axillary cut down. A total of 2 mL sterile saline was injected i.p. and the abdomen gently massaged before it was opened, fluid sampled with a pipette, serially diluted and placed on Endo agar supplemented with 20 µg/mL of tetracycline for CFU identification.

[1] = test system: P. aeruginosa PAO1 mature biofilms; assay: Effect on mature biofilms, viability by MTT; conditions: P. aeruginosa PAO1 pre-formed biofilm, 16 µM, 2-h exposure
Description: Biofilm viability was measured by tetrazolium salt reduction (right panel). Values are presented as means ± the standard deviation (SD) of three independent experiments.
The effect of peptides on pre-formed biofilms was evaluated as follows. Biofilms were grown on a 96-well plate at 32 °C for 24 h and stirred at 120 rpm to ensure biofilm formation primarily on the wall of the wells. […] Bacterial survival in the biofilms after 2-h exposure was evaluated via a MTT assay after incubation with a tested peptide. Then, wells were rinsed with sterile water, treated with an MTT solution (Sigma, Kawasaki, Kanagawa, Japan) in PBS, and incubated for 4 h at 37 °C. Next, the medium was removed. The resulting formazan crystals were dissolved in a mixture of EtOH and DMSO (1:1) for 10 min. The optical density of the solution was measured at 570 nm. Bacterial survival was calculated as percent relative to samples without antimicrobial agent. All data were obtained from at least three independent experiments in 3 repetitions.

E. coli MDR Cl 1057 = assay: Resistance induction by serial passages; type: cell-based; conditions: E. coli MDR Cl 1057, 0.9% NaCl-enriched Mueller–Hinton medium
Description: One of them involves a series passage with suspension of a test strain and liquid medium containing an antibacterial agent at concentrations near the MIC, which progressively increases during the experiment until resistant mutants are enriched. Bacteria that grew at the highest concentration of drug are used in the final step of the test that determines the final MIC value [18].
The ability of peptides to induce bacterial resistance was assessed by the method of two-fold serial dilutions; this test was repeated every day. […] Next, on the second day, 2 μL of the bacterial suspension was taken from the well containing the sub-inhibitory concentration of the drug as close as possible to the MIC and diluted with 1 mL of the same media.

[2] = 25% human serum in PBS (pH 7.4) from healthy donor; conditions: 37 °C, up to 24 h
in vitro = conditions: male, human, 25% fresh human serum, pH 7.4
Description: After incubation, serum proteins were selectively precipitated from the mixture by adding 10% TFA in the presence of 3 M urea. […] Two independent experiments in duplicate were performed for each peptide.

E. coli ML-35p = test system: E. coli ML-35p
Description: Initially, antimicrobial activity of abarenicin and UuBRI-21 was evaluated against the reference strain of E. coli (ML-35p) under various conditions (Table 1). Minimal inhibitory concentrations (MICs) were determined via two-fold serial dilutions in 96-well polystyrene plates. Serial dilutions were made in 0.1% bovine serum albumin (BSA) to minimize the absorption of peptides on the surface of plate wells. Mueller–Hinton broth (MHB) supplemented with 0.9% NaCl was used as the standardized medium.
(§1) Bacterial cultures were grown in MHB at 37 °C until the culture reached an optical density OD600 of 1.0 and diluted with the broth so that to reach a final cell concentration of 10^6 CFU/mL. Then 50 μL of the test culture were added to 50 μL of aqueous solutions of the peptides, previously diluted in 0.1% sterilized bovine serum albumin (BSA) to reduce non-specific binding of the peptides to the surface of the plates. Next, the plate was incubated for 24 h at 37 °C and 950 rpm on the plate thermoshaker (Biosan). The values of the minimum inhibitory concentrations (MIC) were determined as the minimum concentration of the peptide, at which there is no culture growth. The results were expressed as the median values of three independent experiments performed in triplicate.

Gram-negative bacteria = assay: Geometric mean of MICs, Gram-negative panel; type: cell-based; conditions: geometric mean (GM) of MICs against the 14 Gram-negative strains of Figure 2
Description: as §1, with “The antimicrobial activity of the peptides was determined via the method of two-fold serial dilutions in sterile 96-well flat-bottom polystyrene microplates (Eppendorf #0030730011) in Mueller–Hinton broth (MHB, Sigma, Kawasaki, Kanagawa, Japan) supplemented with 0.9% NaCl. Bacterial” for “Bacterial”

human red blood cells = type: cell-based
Description: Figure 4 (A) Hemolytic effect on human red blood cells after 2 h incubation (hemoglobin release assay). (B) Cytotoxicity toward transformed human embryonic kidney cells after 20 h incubation (MTT-assay). The positive control used was 0.1% Triton X-100 and sterile PBS as a negative control. Melittin was used as an additional positive control. The data are presented as the mean ± SD of three independent experiments.
The hemolytic activity of compounds was performed using human red blood cells (hRBS) of healthy donor. Fresh blood was centrifuged to separate the erythrocyte fraction for 15 min at 500 g and washed three times with cold phosphate-buffered saline (PBS) (pH 7.4), after which an 8% (v/v) suspension of erythrocytes in PBS was prepared. Then, 50 µL of erythrocyte suspension was added to the test peptides, previously were dissolved in 50 µL of 0.1% BSA. The plate was incubated for 1.5 h at 37 °C and 950 rpm on the plate thermoshaker. After incubation, the plates were centrifuged for 15 min at 1000 g to settle intact erythrocytes. Next, aliquots of the supernatant were transferred to another plate to measure the amount of hemoglobin release by the absorbance of the solution at 405 nm. As “zero lysis” we used the supernatant obtained after centrifugation of erythrocytes incubated in a PBS solution without the addition of a peptide. As “100% lysis”, we used the supernatant obtained after centrifugation of erythrocytes incubated in a 0.1% Triton X-100, causing their complete lysis. The assays were conducted three times. The quantitative data were presented as an average means with standard deviations. Hemolysis(%)=OD405(compound)−OD405(zerolysis)/OD405(100%lysis)−OD405(zerolysis)×100%

Gram-positive bacteria = type: cell-based; conditions: 24 h
Description: as §1, with “The antimicrobial activity of the peptides was determined via the method of two-fold serial dilutions in sterile 96-well flat-bottom polystyrene microplates (Eppendorf #0030730011) in Mueller–Hinton broth (MHB, Sigma, Kawasaki, Kanagawa, Japan) supplemented with 0.9% NaCl. Bacterial” for “Bacterial”

E. coli ATCC 25922 [3] = type: cell-based; conditions: MHB + 0.9% NaCl, 0.1% BSA, 24 h, 37 °C; median of three independent experiments
[4] = RP-HPLC retention time as measure of hydrophobicity; type: physicochemical; conditions: chromatographic, semipreparative RP-HPLC, C18 column, linear gradient 5 to 80% (v/v) acetonitrile in water with 0.1% TFA within 50 minutes; used as measure of hydrophobicity
Description: Table S1. Characteristics of the recombinant AMPs.
1 Mean Kyte–Doolittle hydrophobicity index (GRAVY) was calculated using the Expasy ProtParam tool. The maximum and minimum values of this index are +4.5 and -4.5 for poly-Ile and poly-Arg sequences, respectively. 2 Retention times were measured using semipreparative reversed-phase high-performance liquid chromatography (RP - HPLC) on a C18 column with a linear gradient from 5 to 80% ( v/v) acetonitrile in water containing 0.1% trifluoroacetic […]
acid (TFA) within 50 minutes. […]

E. coli ATCC 25922 [5] = assay: Mice septicemia model, survival; conditions: BALB/c mice, n = 8, E. coli ATCC 25922 i.p. with 2.5% mucin; peptide i.p. 10 mg/kg at 1 and 4 h post-infection; 7 days
Description: Ciprofloxacin (the single dose of 10 mg/kg) and saline were used as the positive and negative controls, respectively. […] Mice were controlled once daily for their health status during 7 post-infection days.
Then, we examined an efficacy of AMPs in the mice septicemia model using 8 animals in a group (Figure 10B).
Experiments were performed with female 8–10-week-old BALB/c mice (22–24 g, “Andreevka” laboratory animal nursery FMBA, Russia). […] All animal experiments were performed at the State Research Center for Applied Microbiology and Biotechnology (SRCAMB) in Obolensk, Russia. The animals were housed in groups of 5 in polycarbonate cages. Food and water were provided ad libitum.
A total of 4 groups with 8 animals were used. The first group received ciprofloxacin (Sigma, Kawasaki, Kanagawa, Japan) administered i.p. once (1 h post-infection) at a dose of 10 mg/kg. The second group received saline (as a vehicle control) administered i.p. once (1 h post-infection). […] Survival was monitored for 7 days. After that survived animals were euthanized by CO2 asphyxiation.

Molecule	Inhibition of biofilm formation (in words) (P. aeruginosa PAO1)	Bacterial burden in mice blood (in words) (E. coli 3421/E19)	Reduction of the CFU level in peritoneal fluid (PF) (E. coli 3421/E19)	Residual viability of bacteria in mature biofilm [1]	Initial MIC in resistance induction experiment (E. coli MDR Cl 1057) [µM]	cleaved bond [2]	remaining at 2 h, 0.12 mg/mL (in vitro) [%]	Fold reduction of antibacterial activity in the presence of serum (E. coli ML-35p; MHB + 0.9% NaCl with 25% FBS versus without) [fold]	Minimum Inhibitory Concentration, MHB + 0.9% NaCl + 25% FBS (E. coli ML-35p; Table 1, medium with 25% fetal bovine serum) [µM]	Minimum Inhibitory Concentration, MHB + 0.9% NaCl (E. coli ML-35p; Table 1, without FBS, dilutions in 0.1% BSA) [µM]	Minimum inhibitory concentration (MIC): Gram-negative Geometric mean (Gram-negative bacteria) [µM]	Hemolytic activity (in words) (human red blood cells)	Minimum inhibitory concentration (MIC): Gram-positive Geometric mean (Gram-positive bacteria) [µM]	Minimum inhibitory concentration (MIC): E. coli ATCC 25922 (E. coli ATCC 25922 [3]) [µM]	RP-HPLC Retention Time [4] [min]	Efficacy in the neutropenic peritonitis model (in words) (E. coli 3421/E19; single i.v. dose of 10 mg/kg, E. coli 3421/E19)	Therapeutic efficacy (survival) after one-week experiment (E. coli ATCC 25922 [5]) [%]
polymyxin B [reference compound]	modest inhibition of biofilm	complete reduction	~ 5 log	about 20%	0.125												
GYCFTACYLRNGVRICYRRCN						glycine-Y, major											
CC[C@H](C)[C@@H]1NC(=O)[C@H](CCCNC(=N)N)NC(=O)[C@H](C(C)C)NC(=O)CNC(=O)[C@H](CC(N)=O)NC(=O)[C@H](CCCNC(=N)N)NC(=O)[C@H](CC(C)C)NC(=O)[C@H](Cc2ccc(O)cc2)NC(=O)[C@@H]2CSSC[C@H](NC1=O)C(=O)N[C@@H](Cc1ccc(O)cc1)C(=O)N[C@@H](CCCNC(=N)N)C(=O)N[C@@H](CCCNC(=N)N)C(=O)N[C@H](C(=O)N[C@@H](CC(N)=O)C(=O)O)CSSC[C@H](NC(=O)[C@H](Cc1ccc(O)cc1)NC(=O)CN)C(=O)N[C@@H](Cc1ccccc1)C(=O)N[C@@H]([C@@H](C)O)C(=O)N[C@@H](C)C(=O)N2 [Abarenicin] (H-GYCFTACYLRNGVRICYRRCN-OH; disulfide 3-20, 7-16)							> 90	4	1	0.25	0.45 (≈ 1.14 µg/mL)	moderate hemolytic activity	2.52 (≈ 6.37 µg/mL)	0.25	25.77		
CC[C@H](C)[C@@H]1NC(=O)[C@H](CCCNC(=N)N)NC(=O)[C@H](C(C)C)NC(=O)CNC(=O)[C@H](CC(N)=O)NC(=O)[C@H](CCCNC(=N)N)NC(=O)[C@H](CCCNC(=N)N)NC(=O)[C@H](C)NC(=O)[C@@H]2CSSC[C@H](NC1=O)C(=O)N[C@@H](Cc1ccc(O)cc1)C(=O)N[C@@H](CCCNC(=N)N)C(=O)N[C@@H](CCCNC(=N)N)C(=O)N[C@H](C(=O)N[C@@H](CC(N)=O)C(=O)O)CSSC[C@H](NC(=O)[C@H](Cc1ccc(O)cc1)NC(=O)CN)C(=O)N[C@@H](Cc1ccccc1)C(=O)N[C@@H]([C@@H](C)O)C(=O)N[C@@H](C)C(=O)N2 [Ap9]	more effective in biofilm prevention at sub-inhibitory concentration	complete reduction	~ 5 log	about 20%							0.26 (≈ 0.645 µg/mL)	insignificant toxicity toward human erythrocytes	3.17 (≈ 7.86 µg/mL)		25.37	effective	100
